Test results as given in patent publication US8288371B2, “Ortho pyrrolidine, benzyl-substituted heterocycle CCR1 antagonists for autoimmune diseases and inflammation” (Pharmacopeia, LLC, priority 2007, dated 2012).

biological target: T1, human CCR1 (Homo sapiens, UniProt P32246); assay: CCR1 binding protocol (SPA, [125I]-MIP-1α displacement); details: cell membrane expressing human CCR1, 0.1 nM [125I]-MIP-1α, 4 hours at ambient temperature; read-out: Relative potency (IC50)
T1 sequence (P32246 1-355): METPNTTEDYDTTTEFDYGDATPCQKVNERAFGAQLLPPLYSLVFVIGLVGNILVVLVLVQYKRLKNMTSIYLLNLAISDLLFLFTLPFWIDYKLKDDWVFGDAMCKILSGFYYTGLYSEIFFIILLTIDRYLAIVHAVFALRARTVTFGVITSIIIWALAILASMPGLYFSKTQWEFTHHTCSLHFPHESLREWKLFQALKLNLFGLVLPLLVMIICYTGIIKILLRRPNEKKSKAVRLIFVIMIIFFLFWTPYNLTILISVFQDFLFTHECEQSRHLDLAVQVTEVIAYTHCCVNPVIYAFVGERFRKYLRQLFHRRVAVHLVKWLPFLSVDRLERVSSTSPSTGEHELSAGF
In short: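 Human CCR1 membranes (0.5 μg/well) on SPA beads were incubated with compound and 0.1 nM [125I]-MIP-1α (final) for 4 h at ambient temperature. Buffer was Tris pH 7.4 with NaCl, KCl, MnCl and 0.1% BSA. IC50 came from ½-log compound dilutions (10 mM top DMSO stock) by displacement of bound radioligand.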

SMILES	IC50 [nM]
CC[C@H](NC(=O)N1CCC[C@@H]1c1nnc(C)n1Cc1ccc(Cl)cc1)c1ccc(C(F)(F)F)nc1 [Compound 467]	< 50
Cc1nnc([C@H]2CCCN2C(=O)N[C@@H](C)c2ccc(C(F)(F)F)nc2)n1Cc1ccc(Cl)cc1 [Compound 468]	< 50
Cc1cc(C)c(S(N)(=O)=O)cc1NC(=O)N1CCC[C@@H]1c1nnc(C)n1Cc1ccc(Cl)cc1 [Compound 469]	< 50
Cc1nnc([C@H]2C[C@H](O)CN2C(=O)NCc2ccc(Cl)cc2Cl)n1Cc1ccc(Cl)cc1 [Compound 470]	< 50
Cc1nnc([C@H]2C[C@H](O)CN2C(=O)NCc2ccc(C(F)(F)F)cc2)n1Cc1ccc(Cl)cc1 [Compound 471]	< 50
O=C(N[C@H]1CCOc2cc(C(F)(F)F)ccc21)N1C[C@H](O)C[C@@H]1c1nncn1Cc1ccc(Cl)cc1 [Compound 472]	< 50
Cc1nnc([C@H]2CCCN2C(=O)Nc2c(F)cc(F)cc2F)n1Cc1ccc(Cl)cc1 [Compound 473]	< 50
Cc1nnc([C@H]2C[C@H](O)CN2C(=O)N[C@@H](C)c2ccc(Cl)cc2)n1Cc1ccc(Cl)cc1 [Compound 474]	< 50
O=C(NCc1ccc(Cl)cc1Cl)N1C[C@H](O)C[C@@H]1c1nncn1Cc1ccc(Cl)cc1 [Compound 475]	50 to 500
O=C(NC(c1ccccc1)c1ccccc1)N1C[C@H](O)C[C@@H]1c1nncn1Cc1ccc(Cl)cc1 [Compound 476]	50 to 500
O=C(NC1(c2ccc(C(F)(F)F)cc2)CC1)N1C[C@H](O)C[C@@H]1c1nncn1Cc1ccc(Cl)cc1 [Compound 477]	50 to 500
CC(=O)O[C@@H]1C[C@H](c2nncn2Cc2ccc(Cl)cc2)N(C(=O)NC(c2ccccc2)c2ccccc2)C1 [Compound 478]	50 to 500
Cc1nnc([C@H]2CCCN2C(=O)C[C@H](C)c2ccccc2)n1Cc1ccc(Cl)cc1 [Compound 479]	50 to 500
O=C(Nc1ccc(Cl)cc1F)N1C[C@H](O)C[C@@H]1c1nncn1Cc1ccc(Cl)cc1 [Compound 480]	50 to 500
CC(=O)O[C@H]1C[C@H](c2nnc(C)n2Cc2ccc(Cl)cc2)N(C(=O)Nc2ccc(Cl)cc2F)C1 [Compound 481]	500 to 5000
Cc1nnc([C@H]2CCCN2C(=O)C[C@@H](C)c2ccccc2)n1Cc1ccc(Cl)cc1 [Compound 482]	500 to 5000
Cc1cc(C)c(S(=O)(=O)N(C)C)cc1NC(=O)N1CCC[C@@H]1c1nnc(C)n1Cc1ccc(Cl)cc1 [Compound 483]	< 50
CNS(=O)(=O)c1cc(NC(=O)N2CCC[C@@H]2c2nnc(C)n2Cc2ccc(Cl)cc2)c(C)cc1C [Compound 484]	< 50
CC(=O)O[C@@H]1C[C@H](c2ncnn2Cc2ccc(Cl)cc2)N(C(=O)Nc2ccc(Cl)cc2F)C1 [Compound 485]	500 to 5000
Cc1nnc([C@H]2CCCN2C(=O)Nc2ccc(S(N)(=O)=O)cc2Cl)n1Cc1ccc(Cl)cc1 [Compound 486]	< 50
Cc1nnc([C@H]2CCCN2C(=O)Nc2ccc(Cl)c(C#N)c2)n1Cc1ccc(Cl)cc1 [Compound 487]	< 50
CC(=O)O[C@@H]1C[C@H](c2ncnn2Cc2ccc(Cl)cc2)N(C(=O)N[C@H]2CCOc3cc(C(F)(F)F)ccc32)C1 [Compound 488]	< 50

SMILES	IC50 [nM]
NC(=O)c1nnc([C@H]2CCCN2C(=O)N[C@H]2CCOc3cc(C(F)(F)F)ccc32)n1Cc1ccc(Cl)cc1 [Compound 489]	500 to 5000
NC(=O)c1nnc([C@H]2CCCN2C(=O)Nc2ccc(Cl)cc2F)n1Cc1ccc(Cl)cc1 [Compound 490]	500 to 5000
Cc1nnc([C@H]2C[C@H](O)CN2C(=O)Nc2ccc(C(F)(F)F)nc2Cl)n1Cc1ccc(Cl)cc1 [Compound 491]	< 50
Cc1nnc([C@H]2C[C@H](O)CN2C(=O)Nc2ccc(Cl)nc2Cl)n1Cc1ccc(Cl)cc1 [Compound 492]	50 to 500
Cc1nnc([C@H]2C[C@@H](O)CN2C(=O)Nc2ccc(C(F)(F)F)nc2Cl)n1Cc1ccc(Cl)cc1 [Compound 494]	50 to 500
CC[C@@H](NC(=O)N1C[C@@H](O)C[C@@H]1c1nnc(C)n1Cc1ccc(Cl)cc1)c1ccc(C)o1 [Compound 495]	50 to 500
CC(=O)O[C@@H]1C[C@H](c2nnc(C)n2Cc2ccc(Cl)cc2)N(C(=O)Nc2ccc(C(F)(F)F)nc2Cl)C1 [Compound 496]	50 to 500
Cc1nnc([C@H]2CCCN2C(=O)Cc2cccc(Cl)c2)n1Cc1ccc(Cl)cc1 [Compound 497]	50 to 500
Cc1nnc([C@H]2C[C@@H](O)CN2C(=O)Nc2ccc(Cl)nc2Cl)n1Cc1ccc(Cl)cc1 [Compound 498]	50 to 500
Cc1nnc([C@H]2C[C@H](O)CN2C(=O)Cc2cccc(C(F)(F)F)c2)n1Cc1ccc(Cl)cc1 [Compound 499]	50 to 500
CC(=O)O[C@@H]1C[C@H](c2nnc(C)n2Cc2ccc(Cl)cc2)N(C(=O)Nc2ccc(Cl)nc2Cl)C1 [Compound 500]	50 to 500
CC[C@@H](NC(=O)N1C[C@H](O)C[C@@H]1c1nnc(C)n1Cc1ccc(Cl)cc1)c1ccc(C)o1 [Compound 501]	50 to 500
Cc1nnc([C@H]2C[C@@H](O)CN2C(=O)Cc2cccc(C(F)(F)F)c2)n1Cc1ccc(Cl)cc1 [Compound 502]	50 to 500
CC[C@@H](NC(=O)N1C[C@H](OC(C)=O)C[C@@H]1c1nnc(C)n1Cc1ccc(Cl)cc1)c1ccc(C)o1 [Compound 503]	500 to 5000
Cc1nnc([C@H]2CCCN2C(=O)Cc2ccc(F)c(C(F)(F)F)c2)n1Cc1ccc(Cl)cc1 [Compound 504]	50 to 500
Cc1nnc([C@H]2CCCN2C(=O)Cc2cccc(C(F)(F)F)c2F)n1Cc1ccc(Cl)cc1 [Compound 505]	50 to 500
Cc1nnc([C@H]2CC(=O)CN2C(=O)N[C@H]2CCOc3cc(C(F)(F)F)ccc32)n1Cc1ccc(Cl)cc1 [Compound 506]	< 50
Cc1nnc([C@H]2CCCN2C(=O)Cc2ccc(Cl)cc2F)n1Cc1ccc(Cl)cc1 [Compound 507]	50 to 500
Cc1nnc([C@H]2CCCN2C(=O)C(C)c2cccc(Cl)c2)n1Cc1ccc(Cl)cc1 (some centres unmarked) [Compound 508]	50 to 500
Cc1nnc([C@H]2CCCN2C(=O)Cc2cc(F)cc(C(F)(F)F)c2)n1Cc1ccc(Cl)cc1 [Compound 509]	50 to 500
Cc1nnc([C@H]2CCCN2C(=O)Cc2cc(C(F)(F)F)ccc2F)n1Cc1ccc(Cl)cc1 [Compound 510]	< 50
Cc1nnc([C@H]2CCCN2C(=O)Cc2cc(C(F)(F)F)ccc2Cl)n1Cc1ccc(Cl)cc1 [Compound 511]	< 50

SMILES	IC50 [nM]
Cc1nnc([C@H]2CCCN2C(=O)N[C@H](C)c2nc3ccccc3o2)n1Cc1ccc(Cl)cc1 [Compound 513]	< 50
Cc1nnc([C@H]2CCCN2C(=O)N[C@@H](C)c2nc3ccccc3o2)n1Cc1ccc(Cl)cc1 [Compound 514]	50 to 500
Cc1nnc([C@H]2CCCN2C(=O)CC2CCOc3cc(C(F)(F)F)ccc32)n1Cc1ccc(Cl)cc1 (some centres unmarked) [Compound 515]	< 50
CC[C@H](NC(=O)N1CCC[C@@H]1c1nnc(C)n1Cc1ccc(Cl)cc1)c1nc2ccccc2o1 [Compound 516]	500 to 5000
Cc1nc(C(F)(F)F)ccc1NC(=O)N1CC(C)(O)C[C@@H]1c1nnc(C)n1Cc1ccc(Cl)cc1 (some centres unmarked) [Compound 517]	50 to 500
Cc1nnc([C@H]2CCCN2C(=O)Cc2ccc(Cl)nc2)n1Cc1ccc(Cl)cc1 [Compound 518]	< 50
Cc1nnc([C@H]2CCCN2C(=O)Nc2ccc(C(F)(F)F)[n+]([O-])c2C)n1Cc1ccc(Cl)cc1 [Compound 519]	< 50
Cc1cc(C)[n+]([O-])c(C)c1NC(=O)N1CCC[C@@H]1c1nnc(C)n1Cc1ccc(Cl)cc1 [Compound 520]	< 50
Cc1nc(C(F)(F)F)ccc1NC(=O)N1C[C@H](O)C[C@@H]1c1nnc(C)n1Cc1ccc(Cl)cc1 [Compound 521]	< 50
Cc1nnc([C@H]2C[C@@H](O)CN2C(=O)N[C@H]2CCOc3cc(C#N)ccc32)n1Cc1ccc(Cl)cc1 [Compound 522]	< 50
Cc1nnc([C@H]2C[C@H](O)CN2C(=O)N[C@H]2CCOc3cc(C#N)ccc32)n1Cc1ccc(Cl)cc1 [Compound 523]	< 50
Cc1nnc([C@H]2CCCN2C(=O)Nc2ccc(C(F)(F)F)nc2Cl)n1Cc1ccc(Cl)cc1 [Compound 524]	< 50
Cc1nnc([C@H]2CCCN2C(=O)Nc2ccc(C#N)c(C(F)(F)F)c2)n1Cc1ccc(Cl)cc1 [Compound 525]	50 to 500
Cc1nnc([C@H]2CC(C)(O)CN2C(=O)N[C@H]2CCOc3cc(C(F)(F)F)ccc32)n1Cc1ccc(Cl)cc1 (some centres unmarked) [Compound 526]	50 to 500
Cc1c(NC(=O)N2CCC[C@@H]2c2nnc(C)n2Cc2ccc(Cl)cc2)ccc(C#N)c1C(F)(F)F [Compound 527]	< 50
Cc1c(NC(=O)N2CCC[C@@H]2c2nnc(C)n2Cc2ccc(Cl)cc2)ccc(C#N)c1Cl [Compound 528]	< 50
Cc1nnc([C@H]2CCCN2/C(=N/C#N)Nc2ccc(Cl)cc2F)n1Cc1ccc(Cl)cc1 [Compound 529]	50 to 500
Cc1nnc([C@H]2CCCN2c2c(N[C@H]3CCOc4cc(C(F)(F)F)ccc43)c(=O)c2=O)n1Cc1ccc(Cl)cc1 [Compound 530]	50 to 500
Cc1nc(C(F)(F)F)ccc1NC(=O)N1CCC[C@@H]1c1nnc(C)n1Cc1ccc(F)cc1 [Compound 531]	50 to 500
Cc1nnc([C@H]2CC(C)(O)CN2C(=O)Nc2ccc(Cl)cc2F)n1Cc1ccc(Cl)cc1 (some centres unmarked) [Compound 532]	50 to 500
Cc1nnc([C@H]2CCCN2C(=O)C(C)c2cc(C(F)(F)F)ccc2Cl)n1Cc1ccc(Cl)cc1 (some centres unmarked) [Compound 533]	50 to 500
